From the supplement of paper PMC10307832

Experiments:
Assay in all cases: relative viability (nuclei count vs DMSO), 5 days (fraction); higher = more cells survive
NCI-H322M = test system: NCI-H322M
In short: (§1)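 A single step with final 0.05% Triton X-100, 1% formaldehyde and 1 ug/ml Hoechst fixed the cells and stained nuclei 5 days after treatment. Lung cancer cell lines in 1536-well plates had been treated by pin tool the day after seeding with one drug alone or a fixed anchor-drug dose plus five library-drug doses (not always all listed) in √10 steps, and nuclei were counted on 4× images. Relative viability is the ratio of nuclei in treated wells to nuclei in vehicle wells, taken as the median of duplicate plates.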

PC-14 = test system: PC-14
In short: as §1

SW 1573 = test system: SW 1573
In short: as §1

NCI-H2085 = test system: NCI-H2085
In short: as §1

NCI-H647 = test system: NCI-H647
In short: as §1

LXF-289 = test system: LXF-289
In short: as §1

NCI-H661 = test system: NCI-H661
In short: as §1

NCI-H2009 = test system: NCI-H2009
In short: as §1

LCLC-97TM1 = test system: LCLC-97TM1
In short: as §1

NCI-H1993 = test system: NCI-H1993
In short: as §1

NCI-H2023 = test system: NCI-H2023
In short: as §1

NCI-H1734 = test system: NCI-H1734
In short: as §1

HOP-62 = test system: HOP-62
In short: as §1

NCI-H727 = test system: NCI-H727
In short: as §1

NCI-H2126 = test system: NCI-H2126
In short: as §1

EMC-BAC-2 = test system: EMC-BAC-2
In short: as §1

H3255 = test system: H3255
In short: as §1

NCI-H2347 = test system: NCI-H2347
In short: as §1

NCI-H1915 = test system: NCI-H1915
In short: as §1

EPLC-272H = test system: EPLC-272H
In short: as §1

SK-LU-1 = test system: SK-LU-1
In short: as §1

Compound: COc1cc2nccc(Oc3ccc(NC(=O)Nc4cc(C)on4)c(Cl)c3)c2cc1OC [Tivozanib] + Nc1ncn([C@H]2C[C@H](O)[C@@H](CO)O2)c(=O)n1 [Decitabine] (partner 2 µM)
- relative viability (NCI-H322M; first compound 0.005 µM): 0.632
- relative viability (NCI-H322M; first compound 0.01581 µM): 0.55
- relative viability (NCI-H322M; first compound 0.05 µM): 0.762
- relative viability (NCI-H322M; first compound 0.1581 µM): 0.656
- relative viability (NCI-H322M; first compound 0.5 µM): 0.686
- relative viability (PC-14; first compound 0.005 µM): 0.195
- relative viability (PC-14; first compound 0.01581 µM): 0.214
- relative viability (PC-14; first compound 0.05 µM): 0.216
- relative viability (PC-14; first compound 0.1581 µM): 0.252
- relative viability (PC-14; first compound 0.5 µM): 0.153
- relative viability (SW 1573; first compound 0.005 µM): 0.461
- relative viability (SW 1573; first compound 0.01581 µM): 0.446
- relative viability (SW 1573; first compound 0.05 µM): 0.487
- relative viability (SW 1573; first compound 0.1581 µM): 0.376
- relative viability (SW 1573; first compound 0.5 µM): 0.451
- relative viability (NCI-H2085; first compound 0.005 µM): 0.536
- relative viability (NCI-H2085; first compound 0.01581 µM): 0.609
- relative viability (NCI-H2085; first compound 0.05 µM): 0.619
- relative viability (NCI-H2085; first compound 0.1581 µM): 0.578
- relative viability (NCI-H2085; first compound 0.5 µM): 0.562
- relative viability (NCI-H647; first compound 0.005 µM): 0.361
- relative viability (NCI-H647; first compound 0.01581 µM): 0.362
- relative viability (NCI-H647; first compound 0.05 µM): 0.302
- relative viability (NCI-H647; first compound 0.1581 µM): 0.315
- relative viability (NCI-H647; first compound 0.5 µM): 0.394
- relative viability (LXF-289; first compound 0.005 µM): 0.331
- relative viability (LXF-289; first compound 0.01581 µM): 0.363
- relative viability (LXF-289; first compound 0.05 µM): 0.35
- relative viability (LXF-289; first compound 0.1581 µM): 0.346
- relative viability (LXF-289; first compound 0.5 µM): 0.404
- relative viability (NCI-H661; first compound 0.005 µM): 0.527
- relative viability (NCI-H661; first compound 0.01581 µM): 0.557
- relative viability (NCI-H661; first compound 0.05 µM): 0.592
- relative viability (NCI-H661; first compound 0.1581 µM): 0.514
- relative viability (NCI-H661; first compound 0.5 µM): 0.552
- relative viability (NCI-H2009; first compound 0.005 µM): 0.388
- relative viability (NCI-H2009; first compound 0.01581 µM): 0.329
- relative viability (NCI-H2009; first compound 0.05 µM): 0.382
- relative viability (NCI-H2009; first compound 0.1581 µM): 0.369
- relative viability (NCI-H2009; first compound 0.5 µM): 0.368
- relative viability (LCLC-97TM1; first compound 0.005 µM): 0.215
- relative viability (LCLC-97TM1; first compound 0.01581 µM): 0.22
- relative viability (LCLC-97TM1; first compound 0.05 µM): 0.297
- relative viability (LCLC-97TM1; first compound 0.1581 µM): 0.221
- relative viability (LCLC-97TM1; first compound 0.5 µM): 0.19
- relative viability (NCI-H1993; first compound 0.005 µM): 0.658
- relative viability (NCI-H1993; first compound 0.01581 µM): 0.595
- relative viability (NCI-H1993; first compound 0.05 µM): 0.581
- relative viability (NCI-H1993; first compound 0.1581 µM): 0.469
- relative viability (NCI-H1993; first compound 0.5 µM): 0.592
- relative viability (NCI-H2023; first compound 0.005 µM): 0.223
- relative viability (NCI-H2023; first compound 0.01581 µM): 0.219
- relative viability (NCI-H2023; first compound 0.05 µM): 0.24
- relative viability (NCI-H2023; first compound 0.1581 µM): 0.242
- relative viability (NCI-H2023; first compound 0.5 µM): 0.213
- relative viability (NCI-H1734; first compound 0.005 µM): 0.493
- relative viability (NCI-H1734; first compound 0.01581 µM): 0.428
- relative viability (NCI-H1734; first compound 0.05 µM): 0.513
- relative viability (NCI-H1734; first compound 0.1581 µM): 0.431
- relative viability (NCI-H1734; first compound 0.5 µM): 0.5
- relative viability (HOP-62; first compound 0.005 µM): 0.247
- relative viability (HOP-62; first compound 0.01581 µM): 0.187
- relative viability (HOP-62; first compound 0.05 µM): 0.2
- relative viability (HOP-62; first compound 0.1581 µM): 0.256
- relative viability (HOP-62; first compound 0.5 µM): 0.223
- relative viability (NCI-H727; first compound 0.005 µM): 0.836
- relative viability (NCI-H727; first compound 0.01581 µM): 0.929
- relative viability (NCI-H727; first compound 0.05 µM): 0.85
- relative viability (NCI-H727; first compound 0.1581 µM): 0.59
- relative viability (NCI-H727; first compound 0.5 µM): 0.905
- relative viability (NCI-H2126; first compound 0.005 µM): 0.645
- relative viability (NCI-H2126; first compound 0.01581 µM): 0.584
- relative viability (NCI-H2126; first compound 0.05 µM): 0.612
- relative viability (NCI-H2126; first compound 0.1581 µM): 0.602
- relative viability (NCI-H2126; first compound 0.5 µM): 0.578
- relative viability (EMC-BAC-2; first compound 0.005 µM): 1.02
- relative viability (EMC-BAC-2; first compound 0.01581 µM): 0.977
- relative viability (EMC-BAC-2; first compound 0.05 µM): 0.952
- relative viability (EMC-BAC-2; first compound 0.1581 µM): 0.927
- relative viability (EMC-BAC-2; first compound 0.5 µM): 0.975
- relative viability (H3255; first compound 0.005 µM): 0.541
- relative viability (H3255; first compound 0.01581 µM): 0.592
- relative viability (H3255; first compound 0.05 µM): 0.591
- relative viability (H3255; first compound 0.1581 µM): 0.552
- relative viability (H3255; first compound 0.5 µM): 0.77
- relative viability (NCI-H2347; first compound 0.005 µM): 0.569
- relative viability (NCI-H2347; first compound 0.01581 µM): 0.594
- relative viability (NCI-H2347; first compound 0.05 µM): 0.62
- relative viability (NCI-H2347; first compound 0.1581 µM): 0.57
- relative viability (NCI-H2347; first compound 0.5 µM): 0.659
- relative viability (NCI-H1915; first compound 0.005 µM): 0.281
- relative viability (NCI-H1915; first compound 0.01581 µM): 0.281
- relative viability (NCI-H1915; first compound 0.05 µM): 0.253
- relative viability (NCI-H1915; first compound 0.1581 µM): 0.293
- relative viability (NCI-H1915; first compound 0.5 µM): 0.268
- relative viability (EPLC-272H; first compound 0.005 µM): 0.342
- relative viability (EPLC-272H; first compound 0.01581 µM): 0.416
- relative viability (EPLC-272H; first compound 0.05 µM): 0.391
- relative viability (EPLC-272H; first compound 0.1581 µM): 0.409
- relative viability (EPLC-272H; first compound 0.5 µM): 0.365
- relative viability (SK-LU-1; first compound 0.005 µM): 0.647
- relative viability (SK-LU-1; first compound 0.01581 µM): 0.643
- relative viability (SK-LU-1; first compound 0.05 µM): 0.644
- relative viability (SK-LU-1; first compound 0.1581 µM): 0.392
- relative viability (SK-LU-1; first compound 0.5 µM): 0.618
